Results published in patent US4996225A, “Tri-phenyl alkane derivatives and their oestrogenic, anti-oestrogenic and progestanic uses” (Farmos Group Ltd., priority 1982, dated 1991).
pIC50: −log10 of the molar value. “Also recorded” adds a separate entry of the source.

What was measured:
[1] = biological target: T1, oestrogen receptors (Rattus norvegicus, UniProt P06211); experiment: affinity for oestrogen receptors, competition with 3H-17-β-estradiol in rat uterus cytosol (dextran-charcoal method); type: binding; details: read-out: Estrogen receptor affinity (concentration of compound where 50% competition (inhibition) with 3H-estradiol occurred)
T1 construct: rat uterus cytosol preparation; from tissue; host or cells: rat uterus cytosol
T1 sequence (P06211 1-600): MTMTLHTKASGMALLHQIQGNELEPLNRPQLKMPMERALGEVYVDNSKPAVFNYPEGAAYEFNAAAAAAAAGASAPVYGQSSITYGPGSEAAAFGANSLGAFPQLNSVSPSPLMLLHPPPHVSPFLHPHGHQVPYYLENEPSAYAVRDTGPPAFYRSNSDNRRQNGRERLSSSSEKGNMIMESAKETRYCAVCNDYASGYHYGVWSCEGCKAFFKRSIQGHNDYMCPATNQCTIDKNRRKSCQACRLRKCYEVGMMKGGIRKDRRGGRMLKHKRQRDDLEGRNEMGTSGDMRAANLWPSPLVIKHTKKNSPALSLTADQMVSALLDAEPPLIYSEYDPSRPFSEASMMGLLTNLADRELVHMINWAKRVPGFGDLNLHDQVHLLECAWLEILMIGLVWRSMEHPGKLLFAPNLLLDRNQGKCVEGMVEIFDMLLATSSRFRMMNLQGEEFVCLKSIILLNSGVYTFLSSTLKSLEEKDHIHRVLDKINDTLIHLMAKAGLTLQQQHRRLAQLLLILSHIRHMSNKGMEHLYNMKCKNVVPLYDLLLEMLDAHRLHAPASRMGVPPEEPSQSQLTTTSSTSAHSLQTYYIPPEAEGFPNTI
Protocol: The affinity of the new compounds for oestrogen receptors was determined by the ability to compete with ^3 H-labelled 17-β-estradiol in rat uterus cytosol preparation. After incubation, receptor-bound and receptor-unbound ligands were separated by a known dextrancharcoal method.

[2] = system: immature mouse uterus; experiment: oestrogenic effect, uterus weight of immature mice; type: in vivo; details: for estrogenic effect: less than that of estradiol 0.05 mg/kg / increase in uterus weight: 5 mg/kg; for estrogenic effect (in words): immature mice, s.c., three days; for estrogenic effect of their own (in words): up to 5 mg/kg
Protocol: (§1) The oestrogen-antiestrogen (progesterone) effect of the new compounds in vivo was determined as follows: (1) The oestrogenic properties were determined by administering the new compounds, suspended in sesame oil, subcutaneously to 21 days old immature mice on three consecutive days. The mice were killed on the fourth day and the uterus was weighed. […] The weight correlates with the oestrogenic effect of the compound tested. […] In this case, the ability of the molecules to inhibit oestrogen-induced uterus weight increase was also investigated.

[3] = system: MCF-7 cell line (human mammary adenocarcinoma); experiment: anti-tumour effect in vitro, growth of MCF-7 cell line (bioluminescence assay, intracellular ATP); type: cell-based; details: read-out: Antitumour effect against MCF-7 cell line (IC50 = concentration of compound where 50% inhibition of cell growth could be seen)
Protocol: The anti-tumour effect was studied in vitro as follows:
The amount of living cells after 4 h, 24 h and 48 h incubations were determined by bioluminescence assay (intracellular ATP determination).
inhibition of cell growth could be seen.

[4] = system: estradiol induced weight increase in immature mouse uterus; experiment: antiestrogenic effect, inhibition of oestrogen-induced uterus weight increase in immature mice; type: in vivo; details: for anti-estrogenic effect (in words): immature mouse uterus; for effect with estradiol (in words) / reduction in the weights of mice uterus, with estradiol: with estradiol 0.05 mg/kg; for inhibition of estradiol-induced uterus weight increase: estradiol 5 μg/kg
Protocol: as §1

[5] = system: immature mouse uterus; experiment: progestanic effect, uterus weight of immature mice (alone or with medroxyprogesterone acetate); type: in vivo; set-up: reduction in the weight of a mouse uterus, given alone / reduction in the weight of uterus with medroxyprogesterone / reduction in the weights of mice uterus, given alone: concentration or dose not given beside the values; details: for reduction in the weights of mice uterus, given alone: Table 2A; for effect with medroxyprogesterone (in words) / reduction in the weights of mice uterus with medroxyprogesterone, compared to control: with medroxyprogesterone 0.06 mg/kg
[6] = system: DMBA-induced rat mammary adenocarcinomas; experiment: antitumour effect in vivo against DMBA-induced rat mammary adenocarcinoma
Protocol: The anti-tumour effect was investigated in vivo against DMBA-induced rat mammary adenocarcinomas, transplantable mammary and ovarial adenocarcinoma and transplantable prostatic squamous cell carcinoma by the following methods:
Mammary adenocarcinomas were induced by DMBA in 35-40 days old female rats. […] Tumour size and numbers of tumours were evaluated twice a week. Tumour sizes in the control group, treated with solvent, were compared with the test groups.
The size refers to the width×height of the tumour. The growth rate is a difference between sizes compared with that of the first day of the treatment.

OCC[C@H](c1ccccc1)[C@@](O)(c1ccccc1)c1ccc(O)cc1 (relative stereo) [Compound 1, 1,2-diphenyl-1-(4-hydroxyphenyl)-butane-1,4-diol]
pIC50 [1]: 5.00 to 6.00

Oc1ccc([C@@]2(c3ccccc3)OCCC[C@@H]2c2ccccc2)cc1 (relative stereo) [Compound 5, 2,3-diphenyl-2-(4-hydroxyphenyl)tetrahydropyran]
estrogenic effect: less than that of estradiol 0.05 mg/kg [2]: 41%
estrogenic effect (in words) [2]: could be seen only at the higher concentrations investigated
estrogenic effect with increased doses (in words) ([2]; increased doses, effect overcame that of medroxyprogesterone): a weak estrogenic effect could be seen; also recorded: A slight increase in the weight of uterus
pIC50 [3]: 5.30 to 6.00
anti-estrogenic effect (in words) [4]: no antiestrogenic effect
effect with estradiol (in words) [4]: no synergism
decrease of weight of mouse uterus ([5]; 0.05 mg/kg): 34%
effect given alone: progestanic (in words) [5]: progestanic
reduction in the weights of mice uterus, given alone [5]: 34%
progestanic effect (in words) ([5]; immature mouse uterus): due to its progestanic effect
interaction with medroxyprogesterone (in words) ([5]; with medroxyprogesterone): No inhibition of medroxyprogesterone
effect with medroxyprogesterone (in words) [5]: no inhibition
reduction in the weights of mice uterus with medroxyprogesterone, compared to control [5]: 34%
pIC50 [1]: 6.00 to 7.00

Oc1ccc([C@@H](c2ccccc2)[C@@H](CCCl)c2ccccc2)cc1 (relative stereo) [Compound 14, 4-chloro-1,2-diphenyl-1-(4-hydroxyphenyl)-butane]
estrogenic effect: less than that of estradiol 0.05 mg/kg [2]: about 50%
effect given alone: estrogenic (in words) [2]: estrogenic
increase in the weights of mice uterus, given alone [2]: 50%
estrogenic effect (in words) [2]: could be seen only at the higher concentrations investigated
pIC50 [3]: 5.00 to 5.30
inhibition of estradiol induced effect in mouse uterus ([4]; 5 mg/kg): 20%
anti-estrogenic effect (in words) [4]: possessed anti-estrogenic effects
effect with estradiol (in words) [4]: anti-
reduction in the weights of mice uterus, with estradiol [4]: 20%
pIC50 [1]: 6.00 to 7.00

CN(C)CCOc1ccc([C@@]2(c3ccccc3)OCC[C@@H]2c2ccccc2)cc1 (relative stereo) [Compound 16, 2,3-diphenyl-2-[4-[2-(N,N-dimethylamino)-ethoxy]phenyl]-tetrahydrofuran]
estrogenic effect of their own (in words) [2]: no estrogenic effect of their own
pIC50 [3]: 5.00 to 5.30
pIC50 [1]: 4.00 to 5.00

CN(C)CCOc1ccc([C@](O)(c2ccccc2)[C@H](CCO)c2ccccc2)cc1 (relative stereo) [Compound 17, 1,2-diphenyl-1-[4-[2-(N,N-dimethylamino)-ethoxy]phenyl]butane-1,4-diol]
estrogenic effect of their own (in words) [2]: no estrogenic effect of their own
pIC50 [1]: 4.00 to 5.00

COc1ccc(C(=C(CCO)c2ccccc2)c2ccccc2)cc1 [Compound 3, 1,2-diphenyl-1-(4-methoxyphenyl)-1-buten-4-ol]
pIC50 [1]: 5.00 to 6.00

CN(C)CCOc1ccc(/C(=C(/CCO)c2ccccc2)c2ccccc2)cc1 [Compound 4, 1,2-diphenyl-1-[4-[2-(N,N-dimethylamino)-ethoxy]-phenyl]-1-buten-4-ol]
growth rate of tumours compared to controls ([6]; 10 mg/kg): one eighth
estrogenic effect of their own (in words) [2]: no estrogenic effect of their own
pIC50 [3]: 5.30 to 6.00
inhibition of estradiol induced effect in mouse uterus ([4]; 0.5 mg/kg): 12%
effect given alone: antiestrogenic (in words) [4]: anti-
anti-estrogenic effect (in words) [4]: possessed anti-estrogenic effects
effect with estradiol (in words) [4]: anti-
reduction in the weights of mice uterus, with estradiol [4]: 21%
effect given alone: progestanic (in words) [5]: progestanic
reduction in the weight of a mouse uterus, given alone [5]: 38%
reduction in the weights of mice uterus, given alone [5]: 31%
interaction with medroxyprogesterone (in words) ([5]; with medroxyprogesterone): slight inhibition
reduction in the weight of uterus with medroxyprogesterone ([5]; with medroxyprogesterone): 17%
effect with medroxyprogesterone (in words) [5]: weak
reduction in the weights of mice uterus with medroxyprogesterone, compared to control [5]: 17%
pIC50 [1]: 5.00 to 6.00

OCCCC(=C(c1ccccc1)c1ccc(O)cc1)c1ccccc1 [Compound 6, 1,2-diphenyl-1-(4-hydroxyphenyl)-1-penten-5-ol]
pIC50 [1]: 5.00 to 7.00

OCCC(c1ccc(O)cc1)C(O)(c1ccccc1)c1ccc(O)cc1 (stereo not shown) [Compound 8, 1-phenyl-1,2-bis(4-hydroxyphenyl)-butane-1,4-diol]
pIC50 [1]: 5.00 to 6.00

Oc1ccc(C2CCOC2(c2ccccc2)c2ccc(O)cc2)cc1 (stereo not shown) [Compound 9, 2-phenyl-2,3-bis(4-hydroxyphenyl)-tetrahydrofuran]
effect given alone: estrogenic (in words) [2]: estrogenic
increase in the weights of mice uterus, given alone [2]: 50%
effect with estradiol (in words) [4]: not anti-
reduction in the weights of mice uterus, with estradiol [4]: < 10%
pIC50 [1]: 6.00 to 7.00

OCC/C(=C(/c1ccccc1)c1ccc(O)cc1)c1ccccc1 [Compound 10, 1,2-diphenyl-1-(4-hydroxypheny)-1-buten-4-ol]
pIC50 [1]: 6.00 to 7.00

OCC/C(=C(\c1ccccc1)c1ccc(O)cc1)c1ccccc1 [Compound 11, 1,2-diphenyl-1-(4-hydroxyphenyl)-1-buten-4-ol]
estrogenic effect of their own (in words) [2]: no estrogenic effect of their own
inhibition of estradiol induced effect in mouse uterus ([4]; 5 mg/kg): 31%
effect given alone: antiestrogenic (in words) [4]: anti-
anti-estrogenic effect (in words) [4]: possessed anti-estrogenic effects
effect with estradiol (in words) [4]: anti-
reduction in the weights of mice uterus, with estradiol [4]: 31%
reduction in the weight of a mouse uterus, given alone [5]: 56%
reduction in the weights of mice uterus, given alone [5]: 56%
interaction with medroxyprogesterone (in words) ([5]; with medroxyprogesterone): synergistic effect with medroxyprogesterone
effect with medroxyprogesterone (in words) [5]: no inhibition
reduction in the weights of mice uterus with medroxyprogesterone, compared to control [5]: 40%
pIC50 [1]: 5.00 to 6.00

CN(C)CCOc1ccc(/C(=C(\CCO)c2ccccc2)c2ccccc2)cc1 [Compound 12, 1,2-diphenyl-1-[4-[2-(N,N-dimethylamino)-ethoxy]phenyl]-1-buten-4-ol]
antitumour effect against DMBA-induced mammary cancer (in words) ([6]; compared with compound 7): Antitumour effect less than that of compound 7
pIC50 [3]: 5.30 to 6.00
pIC50 [1]: 4.00 to 5.00

Oc1ccc(/C(=C(/CCCl)c2ccccc2)c2ccccc2)cc1 [Compound 15, 4-chloro-1,2-diphenyl-1-(4-hydroxyphenyl)-1-butene]
effect given alone: estrogenic (in words) [2]: estrogenic
increase in the weights of mice uterus, given alone [2]: 20%
pIC50 [3]: 5.00 to 5.30
inhibition of estradiol induced effect in mouse uterus ([4]; 5 mg/kg): 25%
anti-estrogenic effect (in words) [4]: possessed anti-estrogenic effects
effect with estradiol (in words) [4]: anti-
reduction in the weights of mice uterus, with estradiol [4]: 25%
pIC50 [1]: 5.00 to 6.00

CN(C)CCOc1ccc(/C(=C(/CCF)c2ccccc2)c2ccccc2)cc1 [Compound 21, 4-fluoro-1,2-diphenyl-1-[4-[2-(N,N-dimethylamino)ethoxy]phenyl]-1-butene]
growth rate of the tumours (in words) ([6]; rat, in vivo): only the growth rate of the tumours was reduced
increase in uterus weight [2]: ≤ 55%
pIC50 [3]: 5.00 to 5.30
inhibition of estradiol-induced uterus weight increase ([4]; 5 mg/kg): 68-100%
pIC50 [1]: 6.00 to 7.00

CN(C)CCOc1ccc(/C(=C(/CCI)c2ccccc2)c2ccccc2)cc1 [Compound 22, 4-iodo-1,2-diphenyl-1-[4-[2-(N,N-dimethylamino)ethoxy]phenyl]-1-butene]
amount of new tumours (in words) ([6]; rat, in vivo): the amount of new tumours decreased
growth rate of the tumours (in words) ([6]; rat, in vivo): the growth rate of the tumours decreased
increase in uterus weight [2]: ≤ 70%
pIC50 [3]: 5.30 to 6.00
inhibition of estradiol-induced uterus weight increase ([4]; 5 mg/kg): less than 67%
pIC50 [1]: 6.00 to 7.00

CNCCOc1ccc(/C(=C(/CCCl)c2ccccc2)c2ccccc2)cc1 [Compound 23, 4-chloro-1,2-diphenyl-1-[4-[2-(N-methylamino)ethoxy]phenyl]-1-butene]
growth rate of the tumours (in words) ([6]; rat, in vivo): only the growth rate of the tumours was reduced
increase in uterus weight [2]: ≤ 55%
pIC50 [3]: 5.30 to 6.00
inhibition of estradiol-induced uterus weight increase ([4]; 5 mg/kg): 68-100%
pIC50 [1]: 5.00 to 6.00
